In patent US20230151049A1, “Compounds Useful in HIV Therapy” (priority 2020, published 2023):

Assay: in vivo
Settings: single IM Example 43A 60 mg/kg
In short: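 Three male Wistar Han rats (200-250 g), not fasted, received a single intramuscular gastrocnemius injection of prodrug suspension at 20 mg/kg EFdA equivalent. Tail-vein blood was taken into NaF/Na2EDTA, mixed 1:1 with 100 mM ammonium acetate pH 4, frozen, and analysed by LC-MS/MS.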

C#C[C@]1(COP(=O)(N[C@@H](Cc2ccccc2)C(=O)OCCCCCCCCCCCCCCCCCCCC)Oc2ccccc2)O[C@@H](n2cnc3c(N)nc(F)nc32)C[C@@H]1O (single isomer, unassigned) [Example 43A]
Mean concentration of EFdA (day 1): BQL (BQL = below quantification limit, 0.3 ng/mL for both)
Mean concentration of EFdA (day 7): BQL (BQL = below quantification limit, 0.3 ng/mL for both)
Mean concentration of EFdA (day 14): BQL (BQL = below quantification limit, 0.3 ng/mL for both)
Mean concentration of EFdA (day 21): BQL (BQL = below quantification limit, 0.3 ng/mL for both)
Mean concentration of EFdA (day 28): BQL (BQL = below quantification limit, 0.3 ng/mL for both)
Mean concentration of EFdA (day 35): BQL (BQL = below quantification limit, 0.3 ng/mL for both)
Mean concentration of EFdA (day 42): BQL (BQL = below quantification limit, 0.3 ng/mL for both)
Mean concentration of EFdA (day 49): BQL (BQL = below quantification limit, 0.3 ng/mL for both)
Mean concentration of EFdA (day 56): BQL (BQL = below quantification limit, 0.3 ng/mL for both)
Mean concentration of EFdA (day 63): BQL (BQL = below quantification limit, 0.3 ng/mL for both)
Mean concentration of EFdA (day 70): BQL (BQL = below quantification limit, 0.3 ng/mL for both)
Mean concentration of EFdA (day 77): BQL (BQL = below quantification limit, 0.3 ng/mL for both)
Mean concentration of EFdA (day 84): BQL (BQL = below quantification limit, 0.3 ng/mL for both)
concentration at 1 day (male, Wistar Han, rat, in vivo, day 1, read-out: Mean concentration of Example 43A): 89.3 ng/mL
concentration at 7 day (male, Wistar Han, rat, in vivo, day 7, read-out: Mean concentration of Example 43A): 25.4 ng/mL
concentration at 14 day (male, Wistar Han, rat, in vivo, day 14, read-out: Mean concentration of Example 43A): 22.7 ng/mL
concentration at 21 day (male, Wistar Han, rat, in vivo, day 21, read-out: Mean concentration of Example 43A): 22.1 ng/mL
concentration at 28 day (male, Wistar Han, rat, in vivo, day 28, read-out: Mean concentration of Example 43A): 11.3 ng/mL
concentration at 35 day (male, Wistar Han, rat, in vivo, day 35, read-out: Mean concentration of Example 43A): 12.7 ng/mL
concentration at 42 day (male, Wistar Han, rat, in vivo, day 42, read-out: Mean concentration of Example 43A): 10.4 ng/mL
concentration at 49 day (male, Wistar Han, rat, in vivo, day 49, read-out: Mean concentration of Example 43A): 7.22 ng/mL
concentration at 56 day (male, Wistar Han, rat, in vivo, day 56, read-out: Mean concentration of Example 43A): 8.67 ng/mL
concentration at 63 day (male, Wistar Han, rat, in vivo, day 63, read-out: Mean concentration of Example 43A): 12.5 ng/mL
concentration at 70 day (male, Wistar Han, rat, in vivo, day 70, read-out: Mean concentration of Example 43A): 13.1 ng/mL
concentration at 77 day (male, Wistar Han, rat, in vivo, day 77, read-out: Mean concentration of Example 43A): 13.5 ng/mL
concentration at 84 day (male, Wistar Han, rat, in vivo, day 84, read-out: Mean concentration of Example 43A): 7.94 ng/mL
